Assay results as given in publication PMC5773651, “Customised in vitro model to detect human metabolism-dependent idiosyncratic drug-induced liver injury” (Archives of Toxicology, 2017).
Read-outs that look alike come from different tables or passages of the source. Marks after values point to notes of the source that are not given here.

How the values were obtained:
HepG2 cells [1] = assay: Cell viability (PI), IC50, control HepG2 cells; format: cell-based; conditions: Homo sapiens; control non-transduced HepG2; 24 h; unit inferred, tested range in µM; read-out: IC50 (cell viability), C
[2] = test system: HepG2 cells transduced with AdCYP2E1; assay: Cell viability (PI), IC50, AdCYP2E1-HepG2; format: cell-based; conditions: Homo sapiens, unit inferred, tested range in µM
Procedure: (§1) For subculturing purposes, cells were detached by treatment with 0.25% trypsin/0.02% EDTA at 37 °C. For the adenovirus infection studies, cells were seeded in 96-well plates (5000 cells/well) and adenovirus-containing medium was added 48 h later. After 24 h, cells were transferred to the adenovirus-free medium and cultured for an additional 24-h period prior to the incubations performed with the test chemicals. To optimise the expression of the functional enzymes in the adenovirus-transduced HepG2 (Ad-HepG2) cells, different doses (MOI, multiplicity of infection, defined as plaque formation units per cell) of each adenovirus were tested.
(§2) The drugs included in the study were chosen based on previous information about their hepatotoxicity. Information on the potential mechanisms implicated in the toxicity of each compound and the major enzymes involved in their metabolism is summarised in Table 1. HepG2 or Ad-HepG2 (48 h post-infection) cells were exposed for 24 h to eight concentrations of the tested compounds. Each experimental condition was repeated independently three times (with three wells measured each time). The stock solutions of compounds were prepared in DMSO and were conveniently diluted in the culture medium to obtain the desired final concentrations. The final DMSO concentration in the culture medium was 0.5% (v/v), and the control cultures were treated with the same amount of solvent.
(§3) Following treatments, cells were simultaneously loaded with several fluorescent dyes to measure multiple biomarkers of cell toxicity. […] Information about the probes is summarised in Supplementary Table S2.
(§4) After incubating with dyes, cells were imaged by the Scan^R system (Olympus, Germany). Dyes were excited, and their fluorescence was monitored at the excitation and emission wavelengths at appropriate filter settings. The collected images were analysed using the Scan^R analysis module, which allows the simultaneous quantification of subcellular structures that are stained by different fluorescent probes.

[3] = test system: HepG2 cells transduced with AdCYP2E1; conditions: human, 24 h
Procedure: as §1, §2, §3, §4

[4] = test system: HepG2 cells transduced with AdGSTM1; conditions: human, 24 h
Procedure: as §1, §2, §3, §4

HepG2 cells [5] = conditions: human, 24 h
Procedure: as §1, §2, §3, §4

[6] = test system: HepG2 cells co-transduced with AdCYP2E1 and AdCYP1A2; assay: HCS hepatotoxicity assay (MEC, TR), AdCYP2E1 + AdCYP1A2 HepG2; format: cell-based, human; conditions: 24 h; for MEC Apoptosis / MEC Calcium / MEC MMP / MEC Mitochondrial superoxide / MEC ROS: unit inferred, tested range in mM
Procedure: as §1, §2, §3, §4

[7] = test system: HepG2 cells co-transduced with AdCYP2E1, CYP1A2 and AdGSTM1; assay: HCS hepatotoxicity assay (MEC, TR), AdCYP2E1 + AdCYP1A2 + AdGSTM1 HepG2; format: cell-based, human; conditions: 24 h; for MEC Apoptosis / MEC Calcium / MEC MMP / MEC Mitochondrial superoxide / MEC ROS: unit inferred, tested range in mM
Procedure: as §1, §2, §3, §4

[8] = cited from earlier work; for Bioactivation / Enzyme: major enzyme(s) involved in the bioactivation (denoted as *) or detoxification of the drug: previous information; for Toxicity (mechanisms of toxicity): ref Ashrafian et al. [2007], Donato et al. [2009], Fromenty and Pessayre [1997], Rolo et al. [2000], Tolosa et al. [2012b]; for DILI category: ref Gustafsson et al. ([2014])
[9] = test system: HepG2 cells co-transduced with AdCYP2E1 and AdGSTM1; assay: HCS hepatotoxicity assay (MEC, TR), AdCYP2E1 + AdGSTM1 HepG2; format: cell-based, human; conditions: CYP2E1-10X + GSTM1, 24 h
Procedure: as §1, §2, §3, §4

[10] = test system: HepG2 cells transduced with AdCYP2C9; assay: Cell viability (PI), IC50, AdCYP2C9-HepG2; format: cell-based; conditions: Homo sapiens, unit inferred, tested range in µM
[11] = test system: HepG2 cells transduced with AdCYP2B6; assay: Cell viability (PI), IC50, AdCYP2B6-HepG2; format: cell-based; conditions: Homo sapiens, unit inferred, tested range in µM
Procedure: as §1, §2, §3, §4

[12] = test system: HepG2 cells transduced with AdCYP2B6; assay: HCS hepatotoxicity assay (MEC, TR), AdCYP2B6-HepG2; format: cell-based, human; conditions: 24 h, unit inferred, tested range in mM
Procedure: as §1
The drugs included in the study were chosen based on previous information about their hepatotoxicity. […] Each experimental condition was repeated independently three times (with three wells measured each time). […]
as §4

[13] = ref Atienzar et al. ([2014]), Garside et al. ([2014]), Tolosa et al. ([2012b]); cited from earlier work
Ad-HepG2 and HepG2 cells = format: cell-based, human
Source text: Finally, we explored the toxicity of the amoxycillin/clavulanate combination, one of the most commonly implicated agents in severe idiosyncratic liver injury. Unlike other studied drugs, the hepatotoxicity of amoxycillin/clavulanate has not been related to CYP metabolism.

[14] = ADV CYP2E1 x1, 24 h, read-out: IC50 (cell viability), ADV dose x1
[15] = ADV CYP2E1 x4, 24 h, read-out: IC50 (cell viability), ADV dose x4
[16] = ADV CYP2E1 x10, 24 h, read-out: IC50 (cell viability), ADV dose x10
[17] = unit inferred, tested range in mM
[18] = unit not given, tested range in mM

CC(=O)Nc1ccc(O)cc1 [Acetaminophen]
IC50 (HepG2 cells [1]): > 15000 µM
IC50 [2, 14]: > 15000 µM
IC50 [2, 15]: > 15000 µM
IC50 [2, 16]: 10600 µM
concentrations needed to significantly alter ROS generation and calcium levels [3]: 4000 to 6000 µM
MEC Apoptosis [4]: 4 µM
MEC Calcium [4]: 10
MEC MMP [4]: 15
MEC Mitochondrial superoxide [4]: 6
MEC ROS [4]: 15
TR [4]: 3.5
MEC Apoptosis (HepG2 cells [5]): 4 µM
MEC Calcium (HepG2 cells [5]): 6
MEC MMP (HepG2 cells [5]): 15
MEC Mitochondrial superoxide (HepG2 cells [5]): 4
MEC ROS (HepG2 cells [5]): 10
TR (HepG2 cells [5]): 3.5
MEC Apoptosis ([6]; CYP2E1-1X + CYP1A2-1X): 1 mM
MEC Calcium ([6]; CYP2E1-1X + CYP1A2-1X): 6 mM
MEC MMP ([6]; CYP2E1-1X + CYP1A2-1X): 10 mM
MEC Mitochondrial superoxide ([6]; CYP2E1-1X + CYP1A2-1X): 1 mM
MEC ROS ([6]; CYP2E1-1X + CYP1A2-1X): 6 mM
TR ([6]; CYP2E1-4X + CYP1A2-4X, TR = 100 x Cmax/lowest MEC): 27.8
MEC Apoptosis ([6]; CYP2E1-4X + CYP1A2-4X): 0.5 mM
MEC Calcium ([6]; CYP2E1-4X + CYP1A2-4X): 0.5 mM
MEC MMP ([6]; CYP2E1-4X + CYP1A2-4X): 6 mM
MEC Mitochondrial superoxide ([6]; CYP2E1-4X + CYP1A2-4X): 0.5 mM
MEC ROS ([6]; CYP2E1-4X + CYP1A2-4X): 0.5 mM
concentration that induced significant changes in the ROS generation and calcium levels ([6]; cells co-transduced with AdCYP2E1 and AdCYP1A2, intermediate doses of adenoviruses): 500 µM
TR ([7]; CYP2E1-1X + CYP1A2-1X + GSTM1, TR = 100 x Cmax/lowest MEC): 3.5
MEC Apoptosis ([7]; CYP2E1-1X + CYP1A2-1X + GSTM1): 4 mM
MEC Calcium ([7]; CYP2E1-1X + CYP1A2-1X + GSTM1): 15 mM
MEC MMP ([7]; CYP2E1-1X + CYP1A2-1X + GSTM1): 15 mM
MEC Mitochondrial superoxide ([7]; CYP2E1-1X + CYP1A2-1X + GSTM1): 6 mM
MEC ROS ([7]; CYP2E1-1X + CYP1A2-1X + GSTM1): 15 mM
MEC Apoptosis ([7]; CYP2E1-4X + CYP1A2-4X + GSTM1): 1 mM
MEC Calcium ([7]; CYP2E1-4X + CYP1A2-4X + GSTM1): 6 mM
MEC MMP ([7]; CYP2E1-4X + CYP1A2-4X + GSTM1): 10 mM
MEC Mitochondrial superoxide ([7]; CYP2E1-4X + CYP1A2-4X + GSTM1): 4 mM
MEC ROS ([7]; CYP2E1-4X + CYP1A2-4X + GSTM1): 6 mM
Bioactivation [8]: Yes
Enzyme: major enzyme(s) involved in the bioactivation (denoted as *) or detoxification of the drug [8]: CYP2E1* (CYP1A2*, CYP3A4*) GST
Toxicity (mechanisms of toxicity) [8]: OS, AP
DILI category [8]: DILI reports

NNC(=O)c1ccncc1 [Isoniazid]
IC50 (HepG2 cells [1]): 61500 µM
IC50 [2, 14]: 52900 µM
IC50 [2, 15]: 44500 µM
IC50 [2, 16]: 46600 µM
MEC MMP [3]: >50
MEC Apoptosis [4]: 30 µM
MEC Calcium [4]: >50
MEC MMP [4]: >50
MEC Mitochondrial superoxide [4]: >50
MEC ROS [4]: >50
TR [4]: 0.25
MEC Apoptosis (HepG2 cells [5]): 30 µM
MEC Calcium (HepG2 cells [5]): 30
MEC MMP (HepG2 cells [5]): >50
MEC Mitochondrial superoxide (HepG2 cells [5]): 30
MEC ROS (HepG2 cells [5]): >50
TR (HepG2 cells [5]): 0.25
TR ([9]; TR = 100 x Cmax/lowest MEC): 0.38
MEC Calcium [9, 17]: 20 mM
MEC Mitochondrial superoxide [9, 17]: 30 mM
MEC ROS [9, 17]: > 50 mM
MEC Apoptosis [9, 18]: 30
MEC MMP [9, 18]: >50
Bioactivation [8]: Yes
Enzyme: major enzyme(s) involved in the bioactivation (denoted as *) or detoxification of the drug [8]: CYP2E1*, GSTM1, NAT2
Toxicity (mechanisms of toxicity) [8]: MI, OS, AP
DILI category [8]: Severe

CCCC(CCC)C(=O)O [Valproic acid]
IC50 (HepG2 cells [1]): 14800 µM
IC50 ([10]; ADV CYP2C99 x1, 24 h, read-out: IC50 (cell viability), ADV dose x1): 14400 µM
IC50 ([10]; ADV CYP2C99 x4, 24 h, read-out: IC50 (cell viability), ADV dose x4): 16000 µM
IC50 ([10]; ADV CYP2C99 x10, 24 h, read-out: IC50 (cell viability), ADV dose x10): 10100 µM
IC50 ([11]; ADV CYP2B6 x1, 24 h, read-out: IC50 (cell viability), ADV dose x1): 13300 µM
IC50 ([11]; ADV CYP2B6 x4, 24 h, read-out: IC50 (cell viability), ADV dose x4): 8600 µM
IC50 ([11]; ADV CYP2B6 x10, 24 h, read-out: IC50 (cell viability), ADV dose x10): 8700 µM
MEC Lipids (HepG2 cells [5]): 6
MEC ROS ([12]; CYP2B6-4X): 10 mM
MEC ROS ([12]; CYP2B6-10X): 8 mM
Cmax [13]: 166 µM
Bioactivation [8]: Yes
Enzyme: major enzyme(s) involved in the bioactivation (denoted as *) or detoxification of the drug [8]: CYP2B6*, CYP2C9* (CYP2E1*, CYP2A6*)
Toxicity (mechanisms of toxicity) [8]: MI, OS, ST

Amoxicillin/clavulanate
ROS production (Ad-HepG2 and HepG2 cells): significant increase
